# Key:
# GPBP [1] = molecular target: GPBP (Mus musculus, UniProt Q9EQG9); conditions: 10 mM, 3 h, FIG. 6B
# Experimental: The cells were lysed in a lyse buffer ([…], […], 1% Triton X-100, 1 μM phenylmethylsulphonylfluoride (PMSF) and 10 μg/mL leupeptin) for 30 min at 4° C. Lysates were centrifuged at 16000×g for 5 min at 4° C. and the total protein concentration of the supernatants determined with the Bradford reagent (Bio-Rad). The samples were analyzed by Western blot using the anti-GPBP mAb-N27 and detected with chemoluminiscence (ECL Prime, GE Healthcare).
# insulin receptor (IRβ) = conditions: 10 mM, 3 h
# Description: Next, cells were washed with PBS and their membrane proteins were extracted.
# C2C12 myotubes = assay: Glucose concentration of C2C12 myotube cultures in M1 macrophage conditioned media; type: cell-based, mouse; conditions: macrophages treated with 10 mM for 2 h, then LPS/IFNγ 16 h
# Experimental: There is considerable evidence showing that inflammation and hyperglycemia are interconnected: inflammation induces hyperglycemia and reciprocally hyperglycemia induces inflammation with the molecular bases not elucidated yet. To explore the participation of GPBP, glucose intake under normoglycemic conditions with conditioned media generated by macrophages differentiated to a proinflammatory M1 phenotype was monitored.
# […]. The glucose concentration of the myotube cultures was determined at different times with Glucocard (Arkray). The controls used were the C2C12 cultured with media conditioned with no stimulated macrophages (Cells) or with M1 conditioned media (M1). The initial glucose levels (time 0) were used as a reference (100%) in each series.
# AS160 = assay: In vitro AS160 phosphorylation in the presence of GPBP, AMPK and AKT; type: biochemical; conditions: 5 mM, with FLAG-GPBP, AKT, AMPK
# Experimental: The reactions (25 μL) were carried out at 30° C., and stirred (350 rpm) for 15 min. Then, they were stopped with a reducing loading buffer, heated (95° C., 2 min), and analyzed using electrophoresis, electrotransfer, and autoradiography.
# VAPA and VAMPs = assay: Colocalization of VAPA and VAMPs (FIG. 18)
# wild type controls (WT) = conditions: 100 mg/kg/day, 8 weeks, fasting
# Experimental: At the 8-week treatment time point, there were 8 mice in each of the WT groups, 6 mice in the KO IRS2 untreated control group, 7 mice in the KO IRS2 SLN1 treated group, and 8 mice in the KO SLN2 treated group. Blood was collected at the time of sacrifice and used to measure TG under fasting conditions. […] Statistical differences between the experimental groups shown in FIG. 21 were assessed by Student's T test. P value of <0.05 is indicated by *.
# [2] = test system: IRS2 knockout mice (IRS2-/-); conditions: 100 mg/kg/day, 8 weeks
# Experimental: At the 8-week treatment time point, there were 6 mice in each treatment group. Adipose tissue was collected upon sacrifice and frozen in liquid N2. Lipidomics analysis of the tissue was then performed using HPLC/MS. […] Statistical differences between the experimental groups shown in FIG. 22 were assessed by Student's T test. P value of <0.01 is indicated by **.
# GPBP [3] = molecular target: T1, GPBP (Homo sapiens, UniProt Q9Y5P4)
# T1 sequence (Q9Y5P4 1-624): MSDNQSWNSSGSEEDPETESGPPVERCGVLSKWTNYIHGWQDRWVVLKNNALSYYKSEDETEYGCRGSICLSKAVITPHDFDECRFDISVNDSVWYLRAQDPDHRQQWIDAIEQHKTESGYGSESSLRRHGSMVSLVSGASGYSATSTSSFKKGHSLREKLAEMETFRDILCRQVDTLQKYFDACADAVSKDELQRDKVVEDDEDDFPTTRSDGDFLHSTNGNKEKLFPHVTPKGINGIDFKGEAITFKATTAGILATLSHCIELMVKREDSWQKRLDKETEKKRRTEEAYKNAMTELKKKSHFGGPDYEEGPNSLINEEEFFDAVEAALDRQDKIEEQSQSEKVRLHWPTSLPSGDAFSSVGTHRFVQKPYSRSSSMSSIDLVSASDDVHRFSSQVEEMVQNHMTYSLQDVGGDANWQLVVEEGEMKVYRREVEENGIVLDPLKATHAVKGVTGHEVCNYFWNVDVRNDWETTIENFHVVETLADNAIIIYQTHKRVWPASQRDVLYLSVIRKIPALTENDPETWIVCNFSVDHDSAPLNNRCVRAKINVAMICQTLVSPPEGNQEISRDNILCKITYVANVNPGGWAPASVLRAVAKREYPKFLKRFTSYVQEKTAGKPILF
# Experimental: HeLa cells, cultured in DMEM, supplemented with 10% fetal bovine serum (FBS), and penicillin/streptomycin, were treated or not (control) with SLN1 or SLN2 1 mM for 24 h. After treatment, cells were washed with PBS, collected with a cell scrapper in PBS, and centrifuged (1850g×10 min, 4° C.). Subsequently, cell precipitates were dispersed in five volumes of hypotonic solution (10 mM HEPES, pH 7.9, 1.5 mM MgCl2, 10 mM KCl, 0.2 mM PMSF, 0.5 M DTT), centrifuged (1850×g, 5 min, 4° C.), and then dispersed again in 3 volumes of hypotonic solution and stored in ice for 10 min. Cells were then lysed with a Dounce homogenizer (18 pestle movements) and centrifuged (3300×g, 15 min, 4° C.). Supernatants (cytoplasmic fraction) were put into a concentrated solution (10×) of 30 mM HEPES, pH 7.9, 140 mM KCl, 0.3 mM MgCl2, and centrifuged for 1 h at 100,000×g. Supernatants were dialyzed against 50 volumes of dialysis solution (20 mM HEPES, pH 7.9, 20% glycerol, 100 mM KCl, 0.2 mM EDTA, 0.2 mM PMSF, 0.5 M DTT), cleared (25000×g, 20 min, 4° C.), and concentrated (Microcon 10K). Then, protein concentration was determined (Bio-Rad) and samples were stored at −80° C. Similar extract quantities were analyzed via gel filtration, using a Superdex 200 column, balanced with PBS (5 GE Healthcare), and a Hitachi HPLC device, collecting fractions of 500 μL. Equivalent fraction volumes were analyzed via Western blots with anti-GPBP N27-HRP antibodies.
# Experimental for type 2 diabetes patients: The aim of this study was to determine the effect of DMMET-01 on insulin sensitivity by Glucose CLAMP technique in Mexican type 2 diabetes patients, after 2 months of treatment.
# Primary Outcome Measures: Insulin sensitivity.
# Secondary Outcome Measures: Insulin, fasting glucose, HbA1c, Adverse Events, Creatinine, Total Cholesterol, HDL, Triglycerides, Uric acid, AST, ALT, FA, and DHL.
# 60 days: 30 days, dose of 1050.6 mg per day (before dinner) and 30 days, dose 1050.6 mg twice a day 30 more days (before breakfast before dinner).
# 60 days: 30 days placebo once a day (before dinner)+30 days twice a day (before breakfast and before dinner).
# GPBP (Mus musculus, UniProt Q9EQG9), sequence (Q9EQG9 whole entry): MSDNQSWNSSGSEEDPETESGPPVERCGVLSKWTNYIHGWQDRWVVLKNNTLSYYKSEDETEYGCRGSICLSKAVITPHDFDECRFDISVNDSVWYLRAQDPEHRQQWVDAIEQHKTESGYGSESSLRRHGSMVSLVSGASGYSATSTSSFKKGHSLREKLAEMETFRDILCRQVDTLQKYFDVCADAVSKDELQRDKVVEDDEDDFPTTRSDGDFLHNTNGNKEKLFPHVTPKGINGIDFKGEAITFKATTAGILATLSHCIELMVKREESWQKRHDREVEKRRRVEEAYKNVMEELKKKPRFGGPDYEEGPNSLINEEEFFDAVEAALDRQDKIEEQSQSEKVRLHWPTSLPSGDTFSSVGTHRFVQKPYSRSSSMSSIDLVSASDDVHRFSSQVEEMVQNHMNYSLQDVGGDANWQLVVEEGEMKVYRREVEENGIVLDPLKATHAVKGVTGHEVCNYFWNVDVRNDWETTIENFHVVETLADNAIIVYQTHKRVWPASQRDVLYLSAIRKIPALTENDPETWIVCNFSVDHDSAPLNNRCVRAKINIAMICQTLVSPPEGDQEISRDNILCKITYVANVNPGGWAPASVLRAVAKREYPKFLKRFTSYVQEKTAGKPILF
structure (smiles),measurement,setting,value
"CN(C)C(=N)NC(=N)N [Metformin glycinate, N,N-dimethylimidodicarbonimidic diamide glycinate]",GPBP dephosphorylation vs untreated or metformin treated cells,GPBP [1],more GPBP dephosphorylation
same,accumulation of IRβ on the cell membrane vs metformin hydrochloride,insulin receptor (IRβ),significantly more accumulation
same,glucose levels of myotube cultures (hyperglycemic levels),C2C12 myotubes,maintained values at normoglycemic levels
same,phosphorylation of AS160,AS160,increased
same,colocalization of VAPA and VAMPS,VAPA and VAMPs,reduced colocalization
same,serum triglycerides compared to untreated or SLN1-treated control mice,wild type controls (WT),lower
same,adipose tissue triglyceride 16:0 compared to control IRS2−/−,[2],significantly lower
same,adipose tissue triglyceride 18:1n-9c compared to control IRS2−/−,[2],drastically reduced
same,A1c level after two months treatment,"type 2 diabetes patients; 1050.6 mg per day 30 days, then 1050.6 mg twice a day 30 days, p=0.008",7.1±1.0%
same,A1c level before treatment,"type 2 diabetes patients; DMMET01 group, baseline",8.1±0.8%
same,reduction of the A1c level,type 2 diabetes patients; after two months treatment,more than 1%
same,sensitivity to insulin (Glucose CLAMP),type 2 diabetes patients; after two months treatment,did not change
same,adverse events vs placebo,type 2 diabetes patients; two months treatment,No statistically significant difference in adverse events
same,high molecular weight GPBP aggregates,"GPBP [3]; 1 mM, 24 h",high molecular weight aggregates formed
same,GPBP-LKB1 aggregates,GPBP [3]; FIG. 14,dissociates GPBP-LKB1 aggregates
